Our source for the EC50 values is US20200016136A1 (VIIV HEALTHCARE UK (NO. 5) LIMITED, priority 2017, published 2020).

The EC50 is the concentration needed to bring the measured effect to its halfway point.

SMILES strings stand for the structures.

The assay deals with NL-RLuc virus (recombinant NL4-3 HIV with Renilla Luciferase gene). Nature of the assay: Inhibition of HIV replication (NL-RLuc virus in MT-2 cells, luciferase readout). It counts as cell-based, Human immunodeficiency virus (HIV). The conditions noted are these: MT2, 120 h. The text has this:
Inhibition of HIV Replication:
A recombinant NL-RLuc proviral clone was constructed in which a section of the nef gene form NL4-3 was replaced with the Renilla Luciferase gene. This virus is fully infectious and can undergo multiple cycles of replication in cell culture. In addition, the luciferous reporter provides a simple and easy method for quantitating the extent of virus growth and consequently, the antiviral activity of test compounds. The plasmid pNLRLuc contains the proviral NL-Rluc DNA cloned into pUC18 at the PvuII site. The NL-RLuc virus was prepared by transfection of 293T cells with the plasmid pNLRLuc. Transfections were performed using the LipofectAMINE PLUS kit form Invitrogen (Carlsbad, Calif.) according to the manufacturer and the virus generated was titered in MT-2 cells. For susceptibility analyses, the titrated virus was used to infect MT-2 cells in the presence of compound, and after 5 days of incubation, cells were processed and quantitated for virus growth by the amount of expressed luciferase. Assay media was RPMI 1640 supplemented with 10% heat inactivated fetal bovine serum (FBS), 100 units/ml penicillin G/100 units/ml streptomycin, 10 mM HEPES buffer pH 7.55 and 2 mM L-glutamine. The results form at least 2 experiments were used to calculate the EC50 values. Luciferase was quantitated using the Dual Luciferase kit form Promega (Madison, Wis.). Susceptibility of viruses to compounds was determined by incubation in the presence of serial dilutions of the compound. The 50% effective concentration (EC50) was calculated by using the exponential form of the median effect equation where (Fa)=1/[1+(ED50/drug conc.)^m](Johnson V A, Byington R T. Infectivity Assay. In Techniques in HIV Research. ed. Aldovini A, Walker B D. 71-76. New York: Stockton Press. 1990).
As for `Cc1cc(F)ccc1CN1CCc2cc(-c3cnc(C)c([C@H](OC(C)(C)C)C(=O)O)c3N3CCC(C)(C)CC3)ccc2C1` [Example 51, (2S)-2-(tert-Butoxy)-2-[4-(4,4-dimethylpiperidin-1-yl)-5-{2-[(4-fluoro-2-methylphenyl)methyl]-1,2,3,4-tetrahydroisoquinolin-6-yl}-2-methylpyridin-3-yl]acetic Acid], the EC50 is 4 nM.
Consider `Cc1nc(CN2CCC3(CCC3)CC2)c(-c2ccc3c(c2)CCN(c2ncnc4c2oc2ccccc24)C3)c(N2CCC(C)(C)CC2)c1[C@H](OC(C)(C)C)C(=O)O` [Example 159, (S)-2-(6-(7-Azaspiro[3.5]nonan-7-ylmethyl)-5-(2-(benzofuro[3,2-d]pyrimidin-4-yl)-1,2,3,4-tetrahydroisoquinolin-6-yl)-4-(4,4-dimethylpiperidin-1-yl)-2-methylpyridin-3-yl)-2-(tert-butoxy)acetic Acid], for which the EC50 was 1 nM.
In the case of `Cc1nnc(-c2cc(N3CCc4cc(-c5c(C)nc(C)c([C@H](OC(C)(C)C)C(=O)O)c5N5CCC(C)(C)CC5)ccc4C3)ncn2)o1` [Example 131, (S)-2-(tert-Butoxy)-2-(4-(4,4-dimethylpiperidin-1-yl)-2,6-dimethyl-5-(2-(6-(5-methyl-1,3,4-oxadiazol-2-yl)pyrimidin-4-yl)-1,2,3,4-tetrahydroisoquinolin-6-yl)pyridin-3-yl)acetic Acid] it was 4 nM; in that of `Cc1nc(C)c([C@H](OC(C)(C)C)C(=O)O)c(N2CCC(C)(C)CC2)c1-c1ccc2c(c1)CCN(c1nccc(N3CCCCC3)n1)C2` [Example 23, (2S)-2-(tert-Butoxy)-2-[4-(4,4-dimethylpiperidin-1-yl)-2,6-dimethyl-5-{2-[4-(piperidin-1-yl)pyrimidin-2-yl]-1,2,3,4-tetrahydroisoquinolin-6-yl}pyridin-3-yl]acetic Acid], 3 nM.
For `CN(Cc1nc(Cl)c([C@H](OC(C)(C)C)C(=O)O)c(N2CCC(C)(C)CC2)c1-c1ccc2c(c1)CCN(c1ncnc3c1oc1ccccc13)C2)CC1CCOCC1` [Example 112, (S)-2-(5-(2-(Benzofuro[3,2-d]pyrimidin-4-yl)-1,2,3,4-tetrahydroisoquinolin-6-yl)-2-chloro-4-(4,4-dimethylpiperidin-1-yl)-6-((methyl((tetrahydro-2H-pyran-4-yl)methyl)amino)methyl)pyridin-3-yl)-2-(tert-butoxy)acetic Acid], the EC50 came to 0.3 nM.
In the case of `Cc1nc(C)c([C@H](OC(C)(C)C)C(=O)O)c(N2CCC(C)(C)CC2)c1-c1ccc2c(c1)CCN(Cc1ccccc1)C2` [Example 52, (2S)-2-[5-(2-Benzyl-1,2,3,4-tetrahydroisoquinolin-6-yl)-4-(4,4-dimethylpiperidin-1-yl)-2,6-dimethylpyridin-3-yl]-2-(tert-butoxy)acetic Acid] it was 3 nM; in that of `Cc1cccc(Cl)c1CN1CCc2cc(-c3c(NC4CCN(C)CC4)nc(C)c([C@H](OC(C)(C)C)C(=O)O)c3N3CCC(C)(C)CC3)ccc2C1` [Example 8, (S)-2-(tert-Butoxy)-2-(5-(2-(2-chloro-6-methylbenzyl)-1,2,3,4-tetrahydroisoquinolin-6-yl)-4-(4,4-dimethylpiperidin-1-yl)-2-methyl-6-((1-methylpiperidin-4-yl)amino)pyridin-3-yl)acetic Acid], 2 nM; in that of `Cc1nc(C)c([C@H](OC(C)(C)C)C(=O)O)c(N2CCC(C)(C)CC2)c1-c1ccc2c(c1)CCN(c1ccnc(N3C4COCC3COC4)n1)C2` [Example 34, (2S)-2-(tert-Butoxy)-2-[4-(4,4-dimethylpiperidin-1-yl)-5-[2-(2-{3,7-dioxa-9-azabicyclo[3.3.1]nonan-9-yl}pyrimidin-4-yl)-1,2,3,4-tetrahydroisoquinolin-6-yl]-2,6-dimethylpyridin-3-yl]acetic Acid], 5 nM.
For `Cc1nc(C)c([C@H](OC(C)(C)C)C(=O)O)c(N2CCC(C)(C)CC2)c1-c1ccc2c(c1)CCN(c1ncnc(N3CCC(O)CC3)n1)C2` [Example 61, (S)-2-(tert-Butoxy)-2-(4-(4,4-dimethylpiperidin-1-yl)-5-(2-(4-(4-hydroxypiperidin-1-yl)-1,3,5-triazin-2-yl)-1,2,3,4-tetrahydroisoquinolin-6-yl)-2,6-dimethylpyridin-3-yl)acetic Acid], the EC50 amounted to 2 nM.
With `Cc1cccc(Cl)c1CN1CCc2cc(-c3c(NCCCN4CCN(C)CC4)nc(C)c([C@H](OC(C)(C)C)C(=O)O)c3N3CCC(C)(C)CC3)ccc2C1` [Example 11], the EC50 came to 2 nM.
In the case of `CCOc1ncnc(N2CCc3cc(-c4c(C)nc(C)c([C@H](OC(C)(C)C)C(=O)O)c4N4CCC(C)(C)CC4)ccc3C2)c1C` [Example 78, (S)-2-(tert-Butoxy)-2-(4-(4,4-dimethylpiperidin-1-yl)-5-(2-(6-ethoxy-5-methylpyrimidin-4-yl)-1,2,3,4-tetrahydroisoquinolin-6-yl)-2,6-dimethylpyridin-3-yl)acetic Acid] it was 5 nM; in that of `CC1(C)CCN(c2c(-c3ccc4c(c3)CCN(c3ncnc5c3oc3ncccc35)C4)c(CO)nc(Cl)c2[C@H](OC(C)(C)C)C(=O)O)CC1` [Example 115, (S)-2-(tert-Butoxy)-2-(2-chloro-4-(4,4-dimethylpiperidin-1-yl)-6-(hydroxymethyl)-5-(2-(pyrido[3′,2′:4,5]furo[3,2-d]pyrimidin-4-yl)-1,2,3,4-tetrahydroisoquinolin-6-yl)pyridin-3-yl)acetic Acid], 1 nM; in that of `Cc1cccc(Cl)c1CN1CCc2cc(-c3c(CNCCCCc4ccccc4)nc(C)c([C@H](OC(C)(C)C)C(=O)O)c3N3CCC(C)(C)CC3)ccc2C1` [Example 155, (S)-2-(tert-Butoxy)-2-(5-(2-(2-chloro-6-methylbenzyl)-1,2,3,4-tetrahydroisoquinolin-6-yl)-4-(4,4-dimethylpiperidin-1-yl)-2-methyl-6-(((4-phenylbutyl)amino)methyl)pyridin-3-yl)acetic Acid], 55 nM.
In the case of `COc1ccncc1-c1cc(C)nc(N2CCc3cc(-c4c(C)nc(C)c([C@H](OC(C)(C)C)C(=O)O)c4N4CCC(C)(C)CC4)ccc3C2)n1` [Example 107, (S)-2-(tert-Butoxy)-2-(4-(4,4-dimethylpiperidin-1-yl)-5-(2-(4-(4-methoxypyridin-3-yl)-6-methylpyrimidin-2-yl)-1,2,3,4-tetrahydroisoquinolin-6-yl)-2,6-dimethylpyridin-3-yl)acetic Acid] it was 1 nM; in that of `CCC(C)(C)O[C@H](C(=O)O)c1c(C)ncc(-c2ccc3c(c2)CCN(Cc2ccc(F)cc2C)C3)c1N1CCC(C)(C)CC1` [Example 54, (2S)-2-[4-(4,4-Dimethylpiperidin-1-yl)-5-{2-[(4-fluoro-2-methylphenyl)methyl]-1,2,3,4-tetrahydroisoquinolin-6-yl}-2-methylpyridin-3-yl]-2-[(2-methylbutan-2-yl)oxy]acetic Acid], 12 nM; in that of `Cc1nc(C)c([C@H](OC(C)(C)C)C(=O)O)c(N2CCC(C)(C)CC2)c1-c1ccc2c(c1)CCN(c1cc(N3CCOCC3)cnn1)C2` [Example 55, (S)-2-(tert-Butoxy)-2-(4-(4,4-dimethylpiperidin-1-yl)-2,6-dimethyl-5-(2-(5-morpholinopyridazin-3-yl)-1,2,3,4-tetrahydroisoquinolin-6-yl)pyridin-3-yl)acetic Acid], 21 nM.
